16 compounds from patent US20240150377A1, “MODULATORS OF CYSTIC FIBROSIS TRANSMEMBRANE CONDUCTANCE REGULATOR” (VERTEX PHARMACEUTICALS INCORPORATED, priority 2020, published 2024) can be followed below.

The structures appear in SMILES notation. Like-named read-outs stand apart in the source and are kept apart here. A value given as a limit tells only on which side of the number the result lay.

Common to all, as to format: cell-based
One assay deals with T1, F508del (Homo sapiens, UniProt P13569, DEL508-508).
T1 construct: expressed in transfected cells
Nature of the assay: 3T3 assay: membrane potential optical assay for F508del correction. The conditions noted are these: F508del NIH 3T3 cells; for Emax: NIH3T3, compared to lumacaftor in combination with acutely added 300 nM Ivacaftor, read-out: 3T3 Max Activity; for EC50: 18-24 hours at 37° C., forskolin, acutely added 300 nM Ivacaftor. An excerpt: 1. Membrane Potential Optical Methods for Assaying F508del Modulation Properties of Compounds
The assay utilizes fluorescent voltage sensing dyes to measure changes in membrane potential using a fluorescent plate reader (e.g., FLIPR III, Molecular Devices, Inc.) as a readout for increase in functional F508del in NIH 3T3 cells. The driving force for the response is the creation of a chloride ion gradient in conjunction with channel activation by a single liquid addition step after the cells have previously been treated with compounds and subsequently loaded with a voltage sensing dye.
2. Identification of Corrector Compounds
To identify correctors of F508del, a single-addition HTS assay format was developed. This HTS assay utilizes fluorescent voltage sensing dyes to measure changes in membrane potential on the FLIPR III as a measurement for increase in gating (conductance) of F508del in F508del NIH 3T3 cells. The F508del NIH 3T3 cell cultures were incubated with the corrector compounds at a range of concentrations for 18-24 hours at 37° C., and subsequently loaded with a redistribution dye. The driving force for the response is a Cl^− ion gradient in conjunction with channel activation with forskolin in a single liquid addition step using a fluorescent plate reader such as FLIPR III.
Bath Solution #1: (in mM) NaCl 160, KCl 4.5, CaCl2) 2, MgCl2 1, HEPES 10, pH 7.4 with NaOH.
Chloride-free bath solution: Chloride salts in Bath Solution #1 (above) are substituted with gluconate salts.
NIH3T3 mouse fibroblasts stably expressing F508del are used for optical measurements of membrane potential. The cells are maintained at 37° C. in 5% CO2 and 90% humidity in Dulbecco's modified Eagle's medium supplemented with 2 mM glutamine, 10% fetal bovine serum, 1× NEAA, b-ME, 1×pen/strep, and 25 mM HEPES in 175 cm^2 culture flasks. For all optical assays, the cells were seeded at ˜20,000/well in 384-well Matrigel-coated plates. For the correction assays, the cells are cultured at 37° C. with and without compounds for 16-24 hours.

The target of assay [1] is T2, CFTR (Homo sapiens, UniProt P13569). Nature of the assay: Membrane potential dye, Enteroid Assay A. The conditions noted are these: for Ent. A Max Activity: chloride transport as % of triple combination control (Enteroid Assay A); for EC50: read-out: Ent. A EC50. The procedure, abridged: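 % Activity: chloride transport relative to a 3 μM/3 μM corrector pair plus 300 nM acute potentiator control. Primary human enteroid cells, 18-24 h compound exposure at 37 °C; membrane potential dye (methyl oxonol) fluorescence over 15 min after forskolin (10 μM)/IBMX (100 μM)/Compound III (300 nM) stimulation in chloride-free buffer.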

The target of assay [2] is T2, CFTR. Nature of the assay: Membrane potential dye, Enteroid Assay B. The note with it: for Ent. B Max Activity: chloride transport as % of triple combination control (Enteroid Assay B); for EC50: read-out: Ent. B EC50. An outline of the steps: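 Fluorescence read over 15 min after chloride-free stimulation (10 μM forskolin, 100 μM IBMX, 300 nM Compound III) gave chloride transport, reported as % activity versus a triple-corrector/potentiator control. Beforehand, human enteroid cells had 18-24 h compound exposure at 37° C and 25 min methyl oxonol dye loading at room temperature.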

[3] abbreviates: Table 6, human enteroid cells, 18-24 hours, acute 10 μM forskolin and 300 nM ivacaftor.
Where [4] appears, read: Table 7, human enteroid cells, 18-24 hours, acute 10 μM forskolin and 300 nM ivacaftor.

T1 sequence (P13569 with tags, fused parts or gaps DEL508-508): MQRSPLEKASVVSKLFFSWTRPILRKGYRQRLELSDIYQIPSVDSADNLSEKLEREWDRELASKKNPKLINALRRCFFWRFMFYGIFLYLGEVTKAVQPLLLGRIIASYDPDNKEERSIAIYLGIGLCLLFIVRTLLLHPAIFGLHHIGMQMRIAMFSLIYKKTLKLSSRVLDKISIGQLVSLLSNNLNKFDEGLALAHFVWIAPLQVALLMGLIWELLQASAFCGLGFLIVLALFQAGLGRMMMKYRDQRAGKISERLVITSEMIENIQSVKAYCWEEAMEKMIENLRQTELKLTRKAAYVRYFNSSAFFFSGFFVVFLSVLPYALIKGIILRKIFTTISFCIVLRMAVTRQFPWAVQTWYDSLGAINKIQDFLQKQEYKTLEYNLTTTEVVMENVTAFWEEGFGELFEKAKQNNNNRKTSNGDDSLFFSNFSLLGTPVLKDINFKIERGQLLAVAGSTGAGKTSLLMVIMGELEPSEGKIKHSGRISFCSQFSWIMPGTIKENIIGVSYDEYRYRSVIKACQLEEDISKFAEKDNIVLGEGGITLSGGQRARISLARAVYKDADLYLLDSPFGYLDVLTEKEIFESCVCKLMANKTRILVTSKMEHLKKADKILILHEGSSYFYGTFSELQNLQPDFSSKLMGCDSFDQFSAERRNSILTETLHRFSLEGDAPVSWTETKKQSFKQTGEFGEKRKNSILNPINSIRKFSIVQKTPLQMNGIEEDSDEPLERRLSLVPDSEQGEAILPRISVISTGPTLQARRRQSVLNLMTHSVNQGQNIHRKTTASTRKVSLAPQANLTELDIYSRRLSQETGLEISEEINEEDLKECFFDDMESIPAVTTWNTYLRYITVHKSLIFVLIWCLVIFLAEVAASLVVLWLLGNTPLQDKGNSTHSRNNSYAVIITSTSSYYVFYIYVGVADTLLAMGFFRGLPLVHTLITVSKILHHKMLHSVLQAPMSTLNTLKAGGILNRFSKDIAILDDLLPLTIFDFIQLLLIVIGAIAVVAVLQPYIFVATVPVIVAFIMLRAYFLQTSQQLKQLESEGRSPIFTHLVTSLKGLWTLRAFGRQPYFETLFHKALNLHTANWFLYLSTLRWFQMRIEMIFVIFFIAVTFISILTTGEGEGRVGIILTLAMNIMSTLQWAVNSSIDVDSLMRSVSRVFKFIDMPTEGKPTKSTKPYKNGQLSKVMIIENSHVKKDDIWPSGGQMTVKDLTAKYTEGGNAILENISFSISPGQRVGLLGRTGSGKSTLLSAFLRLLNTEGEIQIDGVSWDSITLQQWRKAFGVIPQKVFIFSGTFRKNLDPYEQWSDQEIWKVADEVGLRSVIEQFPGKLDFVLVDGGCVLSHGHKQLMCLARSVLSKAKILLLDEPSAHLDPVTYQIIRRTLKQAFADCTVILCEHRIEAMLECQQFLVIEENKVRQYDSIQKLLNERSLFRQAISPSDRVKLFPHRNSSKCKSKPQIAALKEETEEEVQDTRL
T2 sequence (P13569 with tags, fused parts or gaps DEL508-508): as above

As usually defined, the EC50 is the concentration giving half of the maximal effect. Consider `Cc1cccc(C)c1-c1cc2nc(n1)NS(=O)(=O)c1cccc(c1)C(=O)N(Cc1ccccc1)CC(Cc1ccccc1)O2` (stereo in doubt) [Compound 106, (10R)-10,12-dibenzyl-6-(2,6-dimethylphenyl)-9-oxa-2λ^6-thia-3,5,12,19-tetraazatricyclo[12.3.1.14,8]nonadeca-1(17),4(19),5,7,14(18),15-hexaene-2,2,13-trione], for which, at F508del (Table 6), the Emax was above 60% and the EC50 was below 1000 nM. The “Ent. A Max Activity” value at CFTR [1] (Table 6) was “+++ (+++ is >60%)”. The concentration for a half-maximal effect (EC50) at CFTR [1] (setting [3]) was below 1000 nM.

In the case of `CCCCCCCCN1C(=O)c2cccc(c2)S(=O)(=O)Nc2nc(cc(-c3c(C)cccc3C)n2)OC[C@H]1CC(C)C` [Compound 361], on F508del (Table 6), the Emax is above 60% and the EC50 was below 1000 nM. Besides, the “Ent. A Max Activity” value at CFTR [1] (Table 6) is “+++ (+++ is >60%)”. The EC50 at CFTR [1] (setting [3]) was below 1000 nM.

On to `Cc1cccc(C)c1-c1cc2nc(n1)NS(=O)(=O)c1cccc(c1)NC(=O)CN(C(=O)OC(C)(C)C)CCO2` [Compound 516], for which, at F508del (Table 6), the Emax is above 60% and the EC50 is below 1000 nM. Besides, the “Ent. A Max Activity” value on CFTR [1] (Table 6) was “+++ (+++ is >60%)”. The EC50 at CFTR [1] (setting [3]) was in the range of 3000 to 30000 nM.

Take `Cc1cccc(C)c1-c1cc2nc(n1)NS(=O)(=O)c1cccc(c1)C(=O)N(C)[C@H](CC(C)C)CO2` [Compound 71, (11R)-6-(2,6-Dimethylphenyl)-12-methyl-11-(2-methylpropyl)-9-oxa-2λ^6-thia-3,5,12,19-tetraazatricyclo[12.3.1.14,8]nonadeca-1(18),4(19),5,7,14,16-hexaene-2,2,13-trione]: the Emax on F508del (Table 6) is above 60%. The EC50 on F508del (Table 6) and on CFTR [1] (setting [3]) was below 1000 nM throughout. Besides, the “Ent. A Max Activity” value at CFTR [1] (Table 6) is recorded as “+++ (+++ is >60%)”.

`Cc1cccc(C)c1-c1cc2nc(n1)NS(=O)(=O)c1cccc(c1)C(=O)N(C)C[C@H](c1ccc(C(C)(C)C)cc1)O2` (single isomer, unassigned) [Compound 11, 10-(4-tert-Butylphenyl)-6-(2,6-dimethylphenyl)-12-methyl-2,2-dioxo-9-oxa-2λ^6-thia-3,5,12,19-tetrazatricyclo[12.3.1.14,8]nonadeca-1(18),4(19),5,7,14,16-hexaen-13-one]: at F508del (Table 7), the Emax was above 60% and the EC50 was below 1000 nM. Also, the “Ent. A Max Activity” value on CFTR [1] (Table 7) is recorded as “+++ (+++ is >60%)”. Moreover, the EC50 on CFTR [1] (setting [4]) was below 1000 nM.

For the compound `Cc1cccc(C)c1-c1cc2nc(n1)NS(=O)(=O)c1cccc(c1)C(=O)N(C)[C@H](CC(C)C)C(c1ccc(C(C)(C)C)cn1)O2` (stereo in doubt) [Compound 1, (10S,11R)-10-(5-tert-butyl-2-pyridyl)-6-(2,6-dimethylphenyl)-11-isobutyl-12-methyl-2,2-dioxo-9-oxa-2λ^6-thia-3,5,12,19-tetrazatricyclo[12.3.1.14,8]nonadeca-1(18),4(19),5,7,14,16-hexaen-13-one], on F508del (Table 6), the Emax is above 60% and the EC50 is below 1000 nM. The “Ent. A Max Activity” value on CFTR [1] (Table 6) was “+++ (+++ is >60%)”. Besides, the 50% effective concentration (EC50) at CFTR [1] (setting [3]) was below 1000 nM.

Regarding `Cc1cccc(C)c1-c1cc2nc(n1)NS(=O)(=O)c1cccc(c1)C(=O)N(CCC(C)C)[C@H](CCC1(C(F)(F)F)CC1)CO2` [Compound 850], at F508del (Table 6), the Emax was above 60%. The EC50 on F508del (Table 6) and at CFTR [1] (setting [3]) was below 1000 nM each time. The “Ent. A Max Activity” value at CFTR [1] (Table 6) is on record as “+++ (+++ is >60%)”.

Consider `CCCCCN1C(=O)c2cccc(c2)S(=O)(=O)Nc2nc(cc(-c3c(C)cccc3C)n2)OC[C@H]1CC(C)C` [Compound 362], for which, at F508del (Table 6), the Emax was above 60% and the EC50 is below 1000 nM. Besides, at CFTR [1] (Table 6), the “Ent. A Max Activity” value is given as “+++ (+++ is >60%)”. In addition, on CFTR [1] (setting [3]), the EC50 is below 1000 nM.

In the case of `Cc1cccc(C)c1-c1cc2nc(n1)NS(=O)(=O)c1cccc(c1)C(=O)N(Cc1ccc(N3CCCCC3)nc1)[C@H](CC(C)C)CO2` [Compound 974], the Emax at F508del (Table 7) is above 60%. The EC50 on F508del (Table 7) and at CFTR [1] (setting [4]) was below 1000 nM throughout. Also, the “Ent. A Max Activity” value on CFTR [1] (Table 7) is listed as “+++ (+++ is >60%)”.

On to `Cc1cccc(C)c1-c1cc2nc(n1)NS(=O)(=O)c1cccc(c1)C(=O)N(C)C[C@@H](c1ccc(C3CC3)cc1)O2` [Compound 668], for which, at F508del (Table 7), the Emax was above 60% and the concentration for a half-maximal effect (EC50) was below 1000 nM.

For `Cc1cccc(C)c1-c1cc2nc(n1)NS(=O)(=O)c1cccc(c1)C(=O)N(Cc1ccncc1)[C@H](CC(C)C)CO2` [Compound 1106], the “Ent. A Max Activity” value on CFTR [1] (Table 7) is listed as “+++ (+++ is >60%)”. For the same compound, the EC50 at CFTR [1] (setting [4]) and at CFTR [2] (setting [4]) was 1000 to 3000 nM in each case. The “Ent. B Max Activity” value on CFTR [2] (Table 7) is “++ (++ is 30-60%)”.

Turning to `Cc1cccc(C)c1-c1cc2nc(n1)NS(=O)(=O)c1cccc(c1)C(=O)N(Cc1ccccc1)CC(c1ccccc1)O2` (stereo in doubt) [Compound 18, (10R)-12-Benzyl-6-(2,6-dimethylphenyl)-2,2-dioxo-10-phenyl-9-oxa-2λ^6-thia-3,5,12,19-tetrazatricyclo[12.3.1.14,8]nonadeca-1(18),4(19),5,7,14,16-hexaen-13-one], on F508del (Table 6), the Emax was above 60% and the EC50 is below 1000 nM. Also, at CFTR [1] (Table 6), the “Ent. A Max Activity” value is recorded as “+++ (+++ is >60%)”. The EC50 at CFTR [1] (setting [3]) is below 1000 nM.

For `Cc1cccc(C)c1-c1cc2nc(n1)NS(=O)(=O)c1cccc(c1)C(=O)N(Cc1ncccn1)[C@H](CC(C)C)CO2` [Compound 77, (11R)-6-(2,6-Dimethylphenyl)-11-isobutyl-2,2-dioxo-12-(pyrimidin-2-ylmethyl)-9-oxa-2λ^6-thia-3,5,12,19-tetrazatricyclo[12.3.1.14,8]nonadeca-1(18),4(19),5,7,14,16-hexaen-13-one], at CFTR [1] (Table 6), the “Ent. A Max Activity” value was “+++ (+++ is >60%)”. In addition, the concentration for a half-maximal effect (EC50) at CFTR [1] (setting [3]) and at CFTR [2] (setting [3]) was below 1000 nM throughout. Besides, at CFTR [2] (Table 6), the “Ent. B Max Activity” value is given as “+++ (+++ is >60%)”.

As to `COCCN1C(=O)c2cccc(c2)S(=O)(=O)Nc2nc(cc(-c3c(C)cccc3C)n2)OC[C@H]1CC(C)C` [Compound 363], the “Ent. A Max Activity” value at CFTR [1] (Table 6) was “+++ (+++ is >60%)”. The concentration for a half-maximal effect (EC50) on CFTR [1] (setting [3]) and on CFTR [2] (setting [3]) was below 1000 nM each time. Besides, the “Ent. B Max Activity” value at CFTR [2] (Table 6) is reported as “+++ (+++ is >60%)”.

Consider `CCN1C(=O)c2cccc(c2)S(=O)(=O)Nc2nc(cc(-c3c(C)cccc3C)n2)O[C@@H]2CN(C3CC4(CCCC4)C3)C[C@H]21` [Compound 1192, (3R,7R)-19-(2,6-Dimethylphenyl)-8-ethyl-5-{spiro[3.4]octan-2-yl}-2-oxa-15λ^6-thia-5,8,16,18,21-pentaazatetracyclo[15.3.1.110,14.03,7]docosa-1(20),10(22),11,13,17(21),18-hexaene-9,15,15-trione], for which, on CFTR [1] (Table 9), the “Ent. A Max Activity (%)” value is given as “+++ (+++ is >600%)” and the 50% effective concentration (EC50) is below 1000 nM. Moreover, on CFTR [2] (Table 9), the “Ent. B Max Activity (%)” value is reported as “++ (++ is 30-60%)” and the EC50 is below 1000 nM.

Take `Cc1cccc(C)c1-c1cc2nc(n1)NS(=O)(=O)c1cccc(c1)C(=O)N(CCC(C)(C)C)C(C(F)(F)F)CO2` (stereo not drawn) [Compound 373]: on F508del (Table 7), the Emax was above 60% and the EC50 fell in the range of 1000 to 3000 nM.
